#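 The concentration for 50% growth inhibition is given as GI50. TGI: concentration producing complete growth inhibition.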 Numbered stars: 1 amine (or outer) side, 2 acyl side, 3 side chain; on linkers, the order of the positions; unused ones are H or OH. Bridge positions count the residues as written; N and C are the ends. Square brackets hold non-standard residues; d marks the D form. Peptide text beside a SMILES is read from it. I, II: the chains in the order shown. Actinocin(9to1) = Cc1c2oc3c(C)ccc(C(=O)[*:1])c3nc-2c(C(=O)[*:2])c(N)c1=O; aThr = C[C@H](O)[C@H](N)C(=O)O; NMeV = CN[C@H](C(=O)O)C(C)C; Sar = CNCC(=O)O
# Tests used:
# Assay in all cases: NCI tumour cell line growth inhibition, 384-well format
# 786-0 renal = test system: 786-0 renal
# A498 renal = test system: A498 renal
# A549 NSCLC = test system: A549 NSCLC
# ACHN renal = test system: ACHN renal
# EKVX NSCLC = test system: EKVX NSCLC
# HCT-15 colon = test system: HCT-15 colon
# IGROV1 ovarian = test system: IGROV1 ovarian
# M14 melanoma = test system: M14 melanoma
# NCI/ADR-RES ovarian = test system: NCI/ADR-RES ovarian
# OVCAR-4 ovarian = test system: OVCAR-4 ovarian
# PC-3 prostate = test system: PC-3 prostate
# SW-620 colon = test system: SW-620 colon
# UO-31 renal = test system: UO-31 renal
# BT-549 breast = test system: BT-549 breast
# CAKI-1 renal = test system: CAKI-1 renal
# COLO 205 colon = test system: COLO 205 colon
# DU-145 prostate = test system: DU-145 prostate
# HCC-2998 colon = test system: HCC-2998 colon
# HCT-116 colon = test system: HCT-116 colon
# HL-60(TB) leukemia = test system: HL-60(TB) leukemia
# HOP-62 NSCLC = test system: HOP-62 NSCLC
# HOP-92 NSCLC = test system: HOP-92 NSCLC
# HS 578T breast = test system: HS 578T breast
# HT29 colon = test system: HT29 colon
# KM12 colon = test system: KM12 colon
# LOX IMVI melanoma = test system: LOX IMVI melanoma
# MALME-3M melanoma = test system: MALME-3M melanoma
# MCF7 breast = test system: MCF7 breast
# MDA-MB-231 breast = test system: MDA-MB-231 breast
# MDA-MB-435 melanoma = test system: MDA-MB-435 melanoma
# MDA-MB-468 breast = test system: MDA-MB-468 breast
# MOLT-4 leukemia = test system: MOLT-4 leukemia
# NCI-H226 lung = test system: NCI-H226 lung
# NCI-H23 lung = test system: NCI-H23 lung
# NCI-H322M lung = test system: NCI-H322M lung
# NCI-H460 NSCLC = test system: NCI-H460 NSCLC
# NCI-H522 lung = test system: NCI-H522 lung
# OVCAR-3 ovarian = test system: OVCAR-3 ovarian
# OVCAR-5 ovarian = test system: OVCAR-5 ovarian
# OVCAR-8 ovarian = test system: OVCAR-8 ovarian
# RPMI-8226 leukemia = test system: RPMI-8226 leukemia
# RXF 393 renal = test system: RXF 393 renal
# SF-268 CNS = test system: SF-268 CNS
# SF-295 CNS = test system: SF-295 CNS
# SF-539 CNS = test system: SF-539 CNS
# SK-MEL-28 melanoma = test system: SK-MEL-28 melanoma
# SK-MEL-5 melanoma = test system: SK-MEL-5 melanoma
# SK-OV-3 ovarian = test system: SK-OV-3 ovarian
# SN12C renal = test system: SN12C renal
# SNB-19 CNS = test system: SNB-19 CNS
# SNB-75 CNS = test system: SNB-75 CNS
# SR leukemia = test system: SR leukemia
# T-47D breast = test system: T-47D breast
# TK-10 renal = test system: TK-10 renal
# U251 glioblastoma = test system: U251 glioblastoma
# UACC-257 melanoma = test system: UACC-257 melanoma
# UACC-62 melanoma = test system: UACC-62 melanoma
smiles,measurement,setting,value
"Cc1c2oc3c(C)ccc(C(=O)N[C@@H]4C(=O)N[C@H](C(C)C)C(=O)N5CCC[C@H]5C(=O)N(C)CC(=O)N(C)[C@@H](C(C)C)C(=O)O[C@H]4C)c3nc-2c(C(=O)N[C@@H]2C(=O)N[C@H](C(C)C)C(=O)N3CCC[C@H]3C(=O)N(C)CC(=O)N(C)[C@@H](C(C)C)C(=O)O[C@H]2C)c(N)c1=O (I: [aThr][dV]P[Sar][NMeV] / II: [aThr][dV]P[Sar][NMeV]; ester I:1-I:C, II:1-II:C; linker I:N-II:N via Actinocin(9to1))",TGI,786-0 renal,18.8 nM
same,TGI,A498 renal,< 0.0165 µM
same,TGI,A549 NSCLC,1370 nM
same,TGI,ACHN renal,16.5 nM
same,TGI,EKVX NSCLC,43.5 nM
same,TGI,HCT-15 colon,69 nM
same,TGI,IGROV1 ovarian,13.8 nM
same,TGI,M14 melanoma,< 0.0112 µM
same,GI50,NCI/ADR-RES ovarian,571 nM
same,TGI,NCI/ADR-RES ovarian,2830 nM
same,TGI,OVCAR-4 ovarian,< 0.0266 µM
same,TGI,PC-3 prostate,57.1 nM
same,TGI,SW-620 colon,< 35.1 nM
same,GI50,UO-31 renal,< 11.9 nM
same,TGI,UO-31 renal,26.8 nM
NC1(C(=O)N[C@@H](CCO)c2ccc(Cl)cc2)CCN(c2ncnc3[nH]ccc23)CC1,GI50,A498 renal,394 nM
same,TGI,A498 renal,26.7 µM
same,GI50,A549 NSCLC,19.7 µM
same,TGI,A549 NSCLC,> 100000 nM
same,GI50,ACHN renal,13.1 µM
same,TGI,ACHN renal,> 100000 nM
same,GI50,BT-549 breast,863 nM
same,TGI,BT-549 breast,18.9 µM
same,GI50,CAKI-1 renal,10.9 µM
same,TGI,CAKI-1 renal,> 100 µM
same,GI50,COLO 205 colon,5.9 µM
same,TGI,COLO 205 colon,73.6 µM
same,GI50,DU-145 prostate,22.6 µM
same,TGI,DU-145 prostate,> 100 µM
same,GI50,EKVX NSCLC,5.28 µM
same,TGI,EKVX NSCLC,> 100000 nM
same,GI50,HCC-2998 colon,2610 nM
same,TGI,HCC-2998 colon,> 100 µM
same,GI50,HCT-116 colon,10.6 µM
same,TGI,HCT-116 colon,> 100 µM
same,GI50,HCT-15 colon,14.7 µM
same,TGI,HCT-15 colon,> 100000 nM
same,GI50,HL-60(TB) leukemia,12.7 µM
same,TGI,HL-60(TB) leukemia,25.9 µM
same,GI50,HOP-62 NSCLC,21.1 µM
same,TGI,HOP-62 NSCLC,> 100 µM
same,GI50,HOP-92 NSCLC,> 100 µM
same,TGI,HOP-92 NSCLC,> 100 µM
same,GI50,HS 578T breast,600 nM
same,TGI,HS 578T breast,47 µM
same,GI50,HT29 colon,4.22 µM
same,TGI,HT29 colon,> 100 µM
same,GI50,IGROV1 ovarian,121 nM
same,TGI,IGROV1 ovarian,2090 nM
same,GI50,KM12 colon,1080 nM
same,TGI,KM12 colon,> 100 µM
same,GI50,LOX IMVI melanoma,22.4 µM
same,TGI,LOX IMVI melanoma,> 100 µM
same,GI50,M14 melanoma,6.69 µM
same,TGI,M14 melanoma,27.6 µM
same,GI50,MALME-3M melanoma,2430 nM
same,TGI,MALME-3M melanoma,15.3 µM
same,GI50,MCF7 breast,437 nM
same,TGI,MCF7 breast,> 100 µM
same,GI50,MDA-MB-231 breast,84.9 µM
same,TGI,MDA-MB-231 breast,> 100 µM
same,GI50,MDA-MB-435 melanoma,6.05 µM
same,TGI,MDA-MB-435 melanoma,87.8 µM
same,GI50,MDA-MB-468 breast,279 nM
same,TGI,MDA-MB-468 breast,14.7 µM
same,GI50,MOLT-4 leukemia,453 nM
same,TGI,MOLT-4 leukemia,1880 nM
same,GI50,NCI-H226 lung,13 µM
same,TGI,NCI-H226 lung,78.6 µM
same,GI50,NCI-H23 lung,15 µM
same,TGI,NCI-H23 lung,65.8 µM
same,GI50,NCI-H322M lung,16.2 µM
same,TGI,NCI-H322M lung,> 100 µM
same,GI50,NCI-H460 NSCLC,631 nM
same,TGI,NCI-H460 NSCLC,25.2 µM
same,GI50,NCI-H522 lung,9.74 µM
same,TGI,NCI-H522 lung,24.2 µM
same,GI50,NCI/ADR-RES ovarian,> 100000 nM
same,TGI,NCI/ADR-RES ovarian,> 100000 nM
same,GI50,OVCAR-3 ovarian,23.3 µM
same,TGI,OVCAR-3 ovarian,> 100 µM
same,GI50,OVCAR-4 ovarian,88.3 µM
same,TGI,OVCAR-4 ovarian,> 100 µM
same,GI50,OVCAR-5 ovarian,21.9 µM
same,TGI,OVCAR-5 ovarian,96.1 µM
same,GI50,OVCAR-8 ovarian,26.4 µM
same,TGI,OVCAR-8 ovarian,> 100 µM
same,GI50,PC-3 prostate,629 nM
same,TGI,PC-3 prostate,> 100000 nM
same,GI50,RPMI-8226 leukemia,21.5 µM
same,TGI,RPMI-8226 leukemia,84 µM
same,GI50,RXF 393 renal,1200 nM
same,TGI,RXF 393 renal,44 µM
same,GI50,SF-268 CNS,23.8 µM
same,TGI,SF-268 CNS,> 100 µM
same,GI50,SF-295 CNS,1140 nM
same,TGI,SF-295 CNS,17 µM
same,GI50,SF-539 CNS,410 nM
same,TGI,SF-539 CNS,57.7 µM
same,GI50,SK-MEL-28 melanoma,4.49 µM
same,TGI,SK-MEL-28 melanoma,> 100 µM
same,GI50,SK-MEL-5 melanoma,10 µM
same,TGI,SK-MEL-5 melanoma,29.6 µM
same,GI50,SK-OV-3 ovarian,1020 nM
same,TGI,SK-OV-3 ovarian,> 100 µM
same,GI50,SN12C renal,815 nM
same,TGI,SN12C renal,25.5 µM
same,GI50,SNB-19 CNS,18.8 µM
same,TGI,SNB-19 CNS,> 100 µM
same,GI50,SNB-75 CNS,366 nM
same,TGI,SNB-75 CNS,35.8 µM
same,GI50,SR leukemia,1070 nM
same,TGI,SR leukemia,4.49 µM
same,GI50,T-47D breast,423 nM
same,TGI,T-47D breast,> 100 µM
same,GI50,TK-10 renal,3.3 µM
same,TGI,TK-10 renal,> 100 µM
same,GI50,U251 glioblastoma,5.38 µM
same,TGI,U251 glioblastoma,> 100 µM
same,GI50,UACC-257 melanoma,4.55 µM
same,TGI,UACC-257 melanoma,25.7 µM
same,GI50,UACC-62 melanoma,2200 nM
same,TGI,UACC-62 melanoma,18.6 µM
